Peptide text beside a SMILES is read from it.
Tested on: Botrytis cinerea (B05.10)
Assay: Resazurin antifungal assay of 180 alpha-factor peptide variants towards Botrytis (Example 2)
Assay type: cell-based
Set-up: key to active against Botrytis at 15 μM / active against Botrytis at 10 μM: Peptides that showed greater than 90% inhibition were considered active against Botrytis
Details: for Inhibition at 50 μM / Inhibition at 100 μM / Inhibition at 10 μM / Inhibition at 15 μM / Inhibition at 20 μM: % inhibition of fungal growth, Botrytis conidia, resazurin; for Inhibition at 50 μM: peptide 50 μM; for Inhibition at 100 μM: peptide 100 μM; for Inhibition at 10 μM: peptide 10 μM; for Inhibition at 20 μM: peptide 20 μM
How it was run: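 B. cinerea B05.10 conidia (5000/well) were exposed to peptides at 100, 50, 20, 15 and 10 μM final for 24 h at 20° C. Resazurin was then added and fluorescence read at 570/620 nm. Percent growth inhibition was calculated against conidia-only wells, with four technical replicates.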

Compound | Inhibition at 50 μM | Inhibition at 100 μM | Inhibition at 10 μM | Inhibition at 15 μM (peptide 15 μM) | Inhibition at 20 μM | active against Botrytis at 15 μM (peptide 15 μM)
CSCC[C@H](NC(=O)[C@@H]1CCCN1C(=O)[C@H](CCC(N)=O)NC(=O)CNC(=O)[C@@H]1CCCN1C(=O)[C@H](CCCCN)NC(=O)[C@H](CC(C)C)NC(=O)[C@H](C)NC(=O)[C@H](CC(C)C)NC(=O)CNC(=O)CNC(=O)[C@@H](N)Cc1c[nH]c2ccccc12)C(=O)N[C@@H](Cc1ccc(O)cc1)C(=O)O [compound 48] (H-WGGLALKPGQPMY-OH; N-terminus and C-terminus assumed) | <90% | <90% |  |  |  | 
CSCC[C@H](NC(=O)[C@@H]1CCCN1C(=O)[C@H](CCC(N)=O)NC(=O)CNC(=O)[C@@H]1CCCN1C(=O)[C@H](Cc1ccc(O)cc1)NC(=O)[C@H](CC(C)C)NC(=O)[C@H](CCCCN)NC(=O)[C@H](CC(C)C)NC(=O)[C@H](Cc1c[nH]c2ccccc12)NC(=O)[C@H](CCC(=O)O)NC(=O)[C@@H]1CCCN1)C(=O)N[C@@H](Cc1ccc(O)cc1)C(=O)O [compound 49] (H-PEWLKLYPGQPMY-OH; N-terminus and C-terminus assumed) | <90% | <90% |  |  |  | 
CSCC[C@H](NC(=O)[C@H](CO)NC(=O)[C@H](CO)NC(=O)CNC(=O)[C@@H]1CCCN1C(=O)[C@H](CCCCN)NC(=O)[C@H](CC(C)C)NC(=O)[C@H](CCC(N)=O)NC(=O)[C@H](CC(C)C)NC(=O)[C@@H](NC(=O)[C@H](CCCNC(=N)N)NC(=O)[C@@H](N)Cc1c[nH]c2ccccc12)C(C)C)C(=O)N[C@@H](Cc1ccc(O)cc1)C(=O)O [compound 50] (H-WRVLQLKPGSSMY-OH; N-terminus and C-terminus assumed) | <90% | <90% |  |  |  | 
CC[C@H](C)[C@H](NC(=O)[C@H](CCCNC(=N)N)NC(=O)[C@@H](NC(=O)[C@H](Cc1c[nH]c2ccccc12)NC(=O)[C@H](Cc1c[nH]cn1)NC(=O)[C@@H](N)Cc1c[nH]c2ccccc12)C(C)C)C(=O)N[C@@H](Cc1c[nH]c2ccccc12)C(=O)N1CCC[C@H]1C(=O)NCC(=O)N[C@@H](CCC(N)=O)C(=O)N1CCC[C@H]1C(=O)N[C@@H](CCSC)C(=O)N[C@@H](Cc1ccc(O)cc1)C(=O)O [compound 51] (H-WHWVRIWPGQPMY-OH; N-terminus and C-terminus assumed) | 100% | 100% | <90% | <90% | 97.13% | 
CC[C@H](C)[C@H](NC(=O)[C@H](CCCNC(=N)N)NC(=O)[C@H](CC(C)C)NC(=O)[C@H](Cc1c[nH]c2ccccc12)NC(=O)[C@H](Cc1c[nH]cn1)NC(=O)[C@@H](N)CCCCN)C(=O)N[C@@H](CCCCN)C(=O)N[C@@H](Cc1c[nH]c2ccccc12)C(=O)NCC(=O)N[C@@H](CCC(=O)O)C(=O)N1CCC[C@H]1C(=O)N[C@@H](CCSC)C(=O)N[C@@H](Cc1ccc(O)cc1)C(=O)O [compound 52] (H-KHWLRIKWGEPMY-OH; N-terminus and C-terminus assumed) | 100% | 100% | <90% | 97.66% | 100% | active
CSCC[C@H](NC(=O)[C@@H]1CCCN1C(=O)[C@H](CCC(N)=O)NC(=O)CNC(=O)[C@@H](NC(=O)[C@H](CCCCN)NC(=O)[C@H](CC(C)C)NC(=O)[C@H](CCCNC(=N)N)NC(=O)[C@@H](NC(=O)[C@H](Cc1c[nH]c2ccccc12)NC(=O)[C@H](CCCCN)NC(=O)[C@@H](N)Cc1c[nH]c2ccccc12)C(C)C)[C@@H](C)O)C(=O)N[C@@H](Cc1ccc(O)cc1)C(=O)O [compound 53] (H-WKWVRLKTGQPMY-OH; N-terminus and C-terminus assumed) | 100% | 100% | <90% | <90% | 100% | 
CC[C@H](C)[C@H](NC(=O)[C@H](CCSC)NC(=O)[C@H](Cc1c[nH]cn1)NC(=O)[C@@H](N)CCCCN)C(=O)N[C@@H](CCC(N)=O)C(=O)N[C@@H](CC(C)C)C(=O)N[C@@H](Cc1ccc(O)cc1)C(=O)N[C@@H](Cc1c[nH]c2ccccc12)C(=O)NCC(=O)N[C@@H](CCC(N)=O)C(=O)N1CCC[C@H]1C(=O)N[C@@H](CCSC)C(=O)N[C@@H](Cc1ccc(O)cc1)C(=O)O [compound 54] (H-KHMIQLYWGQPMY-OH; N-terminus and C-terminus assumed) | 100% | 100% | <90% | <90% | 93.21% | 
CSCC[C@H](NC(=O)CNC(=O)[C@H](CO)NC(=O)CNC(=O)[C@@H]1CCCN1C(=O)[C@H](CCCCN)NC(=O)[C@H](CC(C)C)NC(=O)[C@H](CCCNC(=N)N)NC(=O)[C@H](CC(C)C)NC(=O)[C@H](Cc1ccc(O)cc1)NC(=O)[C@H](CCCNC(=N)N)NC(=O)[C@@H](N)Cc1c[nH]c2ccccc12)C(=O)N[C@@H](Cc1ccc(O)cc1)C(=O)O [compound 55] (H-WRYLRLKPGSGMY-OH; N-terminus and C-terminus assumed) | 100% | 100% | <90% | <90% | 99.43% | 
CSCC[C@H](NC(=O)[C@@H]1CCCN1C(=O)[C@H](CCC(N)=O)NC(=O)CNC(=O)[C@H](CCCNC(=N)N)NC(=O)[C@H](CCCCN)NC(=O)[C@H](CC(C)C)NC(=O)[C@H](CCCCN)NC(=O)[C@H](CC(C)C)NC(=O)[C@H](CO)NC(=O)[C@H](Cc1c[nH]cn1)NC(=O)[C@@H](N)Cc1c[nH]c2ccccc12)C(=O)N[C@@H](Cc1ccc(O)cc1)C(=O)O [compound 56] (H-WHSLKLKRGQPMY-OH; N-terminus and C-terminus assumed) | 100% | 100% | <90% | <90% | 99.84% | 
CC[C@H](C)[C@H](NC(=O)[C@H](C)NC(=O)[C@H](CC(C)C)NC(=O)[C@H](Cc1c[nH]c2ccccc12)NC(=O)[C@H](Cc1c[nH]cn1)NC(=O)[C@@H](N)Cc1c[nH]c2ccccc12)C(=O)N[C@@H](Cc1ccccc1)C(=O)N[C@@H](CCCNC(=N)N)C(=O)NCC(=O)N[C@@H](CCC(N)=O)C(=O)N1CCC[C@H]1C(=O)N[C@@H](CCSC)C(=O)N[C@@H](Cc1ccc(O)cc1)C(=O)O [compound 57] (H-WHWLAIFRGQPMY-OH; N-terminus and C-terminus assumed) | 100% | 100% | 3.45% |  | <90% | 
CC[C@H](C)[C@H](NC(=O)[C@H](CCC(N)=O)NC(=O)[C@@H](NC(=O)[C@H](Cc1c[nH]c2ccccc12)NC(=O)[C@H](CCCCN)NC(=O)[C@@H](N)Cc1c[nH]c2ccccc12)C(C)C)C(=O)N[C@@H](CCCCN)C(=O)N[C@@H](CCCCN)C(=O)NCC(=O)N[C@@H](C)C(=O)N1CCC[C@H]1C(=O)N[C@@H](CCSC)C(=O)N[C@@H](Cc1ccc(O)cc1)C(=O)O [compound 58] (H-WKWVQIKKGAPMY-OH; N-terminus and C-terminus assumed) | 100% | 100% | <90% |  | <90% | 

Reference: patent publication US20250382332A1, “NOVEL ALPHA-FACTOR BASED PEPTIDES WITH ANTIFUNGAL ACTIVITY” (INVAIO SCIENCES, INC., priority 2024, published 2025)
